Data published in patent US7795226B2, “Control of radiation injury” (Biotempt B.V., priority 2006, dated 2010).
Values joined by “and” are separate entries in the source; they are usually repeats but may differ in a detail not shown here. Identical values can stand only once.

Assays:
Assay type in all cases: in vivo
[1] = tested on: LPS-induced septic shock in mice; experiment: comparative trial MTR and AQGV from two sources, LPS sickness scores; design: key to Sickness Score, individual mouse: 0: No abnormalities.; 1: Percolated fur, but no detectable behavior differences compared to normal mice.; 2: Percolated fur, huddle reflex, responds to stimuli (such as tap on cage), just as active during handling as healthy mouse.; 3: Slower response to tap on cage, passive or docile when handled, but still curious when alone in a new setting.; 4: Lack of curiosity, little or no response to stimuli, quite immobile.; 5: Labored breathing, inability or slow to self-right after being rolled onto back (moribund, sacrificed).; Dead; conditions: LPS 10-11 mg/kg; for Survival %: group of six
From the text: Mice were scored for sickness severity using the following measurement scheme: • 0 No abnormalities. • 1 Percolated fur, but no detectable behavior differences compared to normal mice. • 2 Percolated fur, huddle reflex, responds to stimuli (such as tap on cage), just as active during handling as healthy mouse. • 3 Slower response to tap on cage, passive or docile when handled, but still curious when alone in a new setting. • 4 Lack of curiosity, little or no response to stimuli, quite immobile. • 5 Labored breathing, inability or slow to self-right after being rolled onto back (moribund, sacrificed). • D Dead.
A comparative trial was set up to compare peptide MTR and AQGV (SEQ ID NO:120), each obtained from two commercial sources. The comparative trial comprised six groups of six animals; two groups (1A and 1B) receiving placebo (PBS), one group ([…]), one group (3) receiving peptide MTR (source Ansynth), one group (4) receiving peptide AQGV (SEQ ID NO:120) (source Pepscan) and one group (5) receiving peptide AQGV (SEQ ID NO:120) (source Ansynth). Peptide/placebo in these groups was administered two hours after LPS. LPS (source) was used at 10 to 11 mg/kg. Sickness scores were done at 0, 2, 22, 26, 42, and 48 hours after LPS injection.
Comparative trial MTR and AQGV (SEO ID NO:120), each derived from two sources, all at 5 mg/kg.

[2] = tested on: BALB/c mice exposed whole body to 10 Gy 137Cs-γ-irradiation; experiment: Whole body γ-irradiation (10 Gy), peptide 1.5 hours before irradiation; conditions: 10 mg/kg i.p. 1.5 hours before 10 Gy; for Watery eyes / Weight loss: affected/total; for Mortality: dead/total
Description: (§1) In the first experiment, 12-week-old female BALB/c mice were treated intraperitoneally with a single injection of either PBS (n=9) or with a peptide (LQGV (SEQ ID NO:117), VLPALP (SEQ ID NO:140), LPGCPRGVNPVVS (SEQ ID NO:114), MTRVLQGVLPALPQVVC (SEQ ID NO:113); n=8, 10 mg/kg). One and a half hours after the treatment, mice were exposed whole body to a single dose of 10 Gy ^137Cs-γ-irradiation. In the second experiment, 12-week-old female BALB/c mice were first exposed whole body to a single dose of 10 Gy ^137Cs-γ-irradiation and then 1.5 hours after the irradiation treated intraperitoneally with a single injection of either PBS (n=9) or with a peptide (n=8 or 9, 10 mg/kg).

[3] = tested on: BALB/c mice exposed whole body to 10 Gy 137Cs-γ-irradiation; experiment: Whole body γ-irradiation (10 Gy), peptide 1.5 hours after irradiation; conditions: 10 mg/kg i.p. 1.5 hours after 10 Gy; for Watery eyes / Weight loss: affected/total; for Mortality: dead/total
Description: as §1

[4] = 0 hours (LPS treatment), peptide from Ansynth (#Ansynth 12, #Ansynth 46) 5 mg/kg
[5] = 0 hours (LPS treatment), peptide from Diosynth BV (#970, #971) 5 mg/kg
[6] = 2 hours (compound treatment), peptide from Ansynth (#Ansynth 12, #Ansynth 46) 5 mg/kg
[7] = 2 hours (compound treatment), peptide from Diosynth BV (#970, #971) 5 mg/kg
[8] = 22 hours, peptide from Ansynth (#Ansynth 12, #Ansynth 46) 5 mg/kg
[9] = 22 hours, peptide from Diosynth BV (#970, #971) 5 mg/kg
[10] = 26 hours, peptide from Ansynth (#Ansynth 12, #Ansynth 46) 5 mg/kg
[11] = 26 hours, peptide from Diosynth BV (#970, #971) 5 mg/kg
[12] = 42 hours, peptide from Ansynth (#Ansynth 12, #Ansynth 46) 5 mg/kg
[13] = 42 hours, peptide from Diosynth BV (#970, #971) 5 mg/kg
[14] = 48 hours, peptide from Ansynth (#Ansynth 12, #Ansynth 46) 5 mg/kg
[15] = 48 hours, peptide from Diosynth BV (#970, #971) 5 mg/kg
[16] = peptide from Ansynth (#Ansynth 12, #Ansynth 46) 5 mg/kg
[17] = peptide from Diosynth BV (#970, #971) 5 mg/kg

Substance	Sickness Score, individual mouse [1, 4]	Sickness Score, individual mouse [1, 5]	Sickness Score, individual mouse [1, 6]	Sickness Score, individual mouse [1, 7]	Sickness Score, individual mouse [1, 8]	Sickness Score, individual mouse [1, 9]	Sickness Score, individual mouse [1, 10]	Sickness Score, individual mouse [1, 11]	Sickness Score, individual mouse [1, 12]	Sickness Score, individual mouse [1, 13]	Sickness Score, individual mouse [1, 14]	Sickness Score, individual mouse [1, 15]	Survival % [1, 16] [%]	Survival % [1, 17] [%]	Watery eyes ([2]; day 0 after irradiation)	Weight loss ([2]; day 0 after irradiation)	Mortality ([2]; day 0 after irradiation)	Mortality ([2]; day 3 after irradiation)	Watery eyes ([2]; day 4 after irradiation)	Weight loss ([2]; day 4 after irradiation)	also measured
AQGV	0	0	2	2	3 (2×) and 2 (3×) and 4	2 (4×) and 3 and 4	3 (2×) and 2 (3×) and 4	2 (3×) and 3 (2×) and 5	2 and 3 and 1 (3×) and 5	2 (5×) and dead	1 (5×) and dead	2 (3×) and 1 (2×)	83	83							
LQGV															0/8	0/8	0/8	0/8	0/8	8/8	Mortality ([2]; day 4 after irradiation): 0/8; Mortality ([2]; day 5 after irradiation): 0/8; Mortality ([2]; day 6 after irradiation): 7/8; Mortality ([2]; day 7 after irradiation): 8/8; Watery eyes ([3]; day 0 after irradiation): 0/9; Weight loss ([3]; day 0 after irradiation): 0/9; Mortality ([3]; day 0 after irradiation): 0/9; Mortality ([3]; day 3 after irradiation): 0/9; Watery eyes ([3]; day 4 after irradiation): 3/9; Weight loss ([3]; day 4 after irradiation): 9/9; Mortality ([3]; day 4 after irradiation): 0/9; Mortality ([3]; day 5 after irradiation): 1/9; Mortality ([3]; day 6 after irradiation): 6/9; Mortality ([3]; day 7 after irradiation): 9/9
MTR	0	0	2	2	2 (4×) and 4 and 3	dead and 3 and 2 (3×) and 4	1 and 2 (2×) and 5 and 4 and 3	3 and 2 (3×) and 5	1 and 2 (2×) and dead and 4 and 5	5 and 2 (2×) and 4 and dead	1 (2×) and dead (2×) and 2	dead (2×) and 2 (2×)	50	33							
VLPALP (hexamer peptide)															0/8	0/8	0/8	0/8	0/8	8/8	Mortality ([2]; day 4 after irradiation): 0/8; Mortality ([2]; day 5 after irradiation): 0/8; Mortality ([2]; day 6 after irradiation): 7/8; Mortality ([2]; day 7 after irradiation): 8/8; Watery eyes ([3]; day 0 after irradiation): 0/9; Weight loss ([3]; day 0 after irradiation): 0/9; Mortality ([3]; day 0 after irradiation): 0/9; Mortality ([3]; day 3 after irradiation): 0/9; Watery eyes ([3]; day 4 after irradiation): 0/9; Weight loss ([3]; day 4 after irradiation): 9/9; Mortality ([3]; day 4 after irradiation): 0/9; Mortality ([3]; day 5 after irradiation): 0/9; Mortality ([3]; day 6 after irradiation): 3/9; Mortality ([3]; day 7 after irradiation): 9/9
